Data taken from patent US20180000085A1, “USE OF PICOLINAMIDE COMPOUNDS WITH FUNGICIDAL ACTIVITY” (DOW AGROSCIENCES LLC, priority 2014, published 2018).

Columns and labels:
Puccinia triticina = test: Wheat brown rust (PUCCRT) disease control on wheat seedlings; assay type: in vivo; set-up: key to PUCCRT 3DC, HV activity at 100 ppm (% control rating) / PUCCRT disease control, 3DC / PUCCRT 1DP disease control rating, HV activity / PUCCRT 3DC disease control rating, HV activity / PUCCRT 3DC, LV activity at 125.1 g/H (% Control rating) / PUCCRT 1DP, LV activity at 125.1 g/H (% Control rating) / PUCCRT 3DC disease control rating, LV activity at 125.1 g/H / PUCCRT 1DP disease control rating, LV activity at 125.1 g/H / PUCCRT 3DC disease control rating, HV activity at 100 ppm / PUCCRT 1DP disease control rating, HV activity at 100 ppm / HV activity at 100 ppm PUCCRT 3DC (disease control rating) / LV activity at 125.1 g/H PUCCRT 1DP (disease control rating) / LV activity at 125.1 g/H PUCCRT 3DC (disease control rating): A: > 80; B: ≤ 80; C: Not Tested; D: No Activity Observed in the Reported Assay; conditions: for PUCCRT 1DP disease control rating, HV activity / PUCCRT 3DC disease control rating, HV activity: HV application at 100 ppm; for PUCCRT 1DP disease control rating, HV activity at 100 ppm / PUCCRT 3DC disease control rating, HV activity at 100 ppm: high volume application; for PUCCRT 1DP disease control rating, HV activity at 100 ppm: 1 day protectant; for PUCCRT 3DC disease control rating, HV activity at 100 ppm: 3 day curative
Zymoseptoria tritici = test: Leaf blotch of wheat (SEPTTR) disease control on wheat seedlings; assay type: in vivo; set-up: key to SEPTTR 1DP, HV activity at 100 ppm (% control rating) / SEPTTR 3DC, HV activity at 100 ppm (% control rating) / SEPTTR disease control, 1DP / SEPTTR disease control, 3DC / SEPTTR 1DP disease control rating, HV activity / SEPTTR 3DC disease control rating, HV activity / SEPTTR 3DC, LV activity at 125.1 g/H (% Control rating) / SEPTTR 1DP, LV activity at 125.1 g/H (% Control rating) / SEPTTR 1DP disease control rating, LV activity at 125.1 g/H / SEPTTR 3DC disease control rating, LV activity at 125.1 g/H / SEPTTR 3DC disease control rating, HV activity at 100 ppm / SEPTTR 1DP disease control rating, HV activity at 100 ppm / HV activity at 100 ppm SEPTTR 3DC (disease control rating) / HV activity at 100 ppm SEPTTR 1DP (disease control rating) / LV activity at 125.1 g/H SEPTTR 1DP (disease control rating) / LV activity at 125.1 g/H SEPTTR 3DC (disease control rating): A: > 80; B: ≤ 80; C: Not Tested; D: No Activity Observed in the Reported Assay; conditions: for SEPTTR 1DP disease control rating, HV activity / SEPTTR 3DC disease control rating, HV activity: HV application at 100 ppm; for SEPTTR 1DP disease control rating, HV activity at 100 ppm / SEPTTR 3DC disease control rating, HV activity at 100 ppm: high volume application; for SEPTTR 1DP disease control rating, HV activity at 100 ppm: 1 day protectant; for SEPTTR 3DC disease control rating, HV activity at 100 ppm: 3 day curative
[1] = 1 Day Protectant, wheat brown rust
[2] = 3 Day Curative, wheat brown rust
[3] = 1 Day Protectant, wheat leaf blotch
[4] = 3 Day Curative, wheat leaf blotch
[5] = low volume application, 125.1 g/H, 1 Day Protectant
[6] = low volume application, 125.1 g/H, 3 Day Curative

COc1ccnc(C(=O)N[C@@H](C)C(=O)O[C@@H](C)[C@@H](CC(C)C)Oc2ccccc2)c1O [Cmpd 355]
PUCCRT 1DP disease control rating, HV activity (Puccinia triticina; [1]): A (> 80)
PUCCRT 3DC disease control rating, HV activity (Puccinia triticina; [2]): A (> 80)
SEPTTR 1DP disease control rating, HV activity (Zymoseptoria tritici; [3]): A (> 80)
SEPTTR 3DC disease control rating, HV activity (Zymoseptoria tritici; [4]): A (> 80)

CC[C@@H](CCC(C)C)[C@H](OCC1CC1)[C@H](C)OC(=O)[C@H](C)NC(=O)c1nccc(OC)c1OC(C)=O [Cmpd 504]
PUCCRT 1DP, LV activity at 125.1 g/H (% Control rating) (Puccinia triticina; [5]): A (> 80)
PUCCRT 3DC, LV activity at 125.1 g/H (% Control rating) (Puccinia triticina; [6]): A (> 80)
SEPTTR 1DP, LV activity at 125.1 g/H (% Control rating) (Zymoseptoria tritici; [5]): B (≤ 80)
SEPTTR 3DC, LV activity at 125.1 g/H (% Control rating) (Zymoseptoria tritici; [6]): B (≤ 80)

COc1ccnc(C(=O)NC(C)C(=O)OC(C)C(Oc2ccc(C(F)(F)F)cc2)C(C)C)c1O (centres unmarked) [Cmpd 394]
PUCCRT 1DP disease control rating, HV activity (Puccinia triticina; [1]): B (≤ 80)
PUCCRT 3DC disease control rating, HV activity (Puccinia triticina; [2]): B (≤ 80)
SEPTTR 1DP disease control rating, HV activity (Zymoseptoria tritici; [3]): A (> 80)
SEPTTR 3DC disease control rating, HV activity (Zymoseptoria tritici; [4]): B (≤ 80)

CCCOC(CC)C(Oc1ccccc1)C(C)OC(=O)C1(NC(=O)c2nccc(OC)c2O)CC1 (centres unmarked) [Cmpd 416]
PUCCRT 1DP disease control rating, HV activity (Puccinia triticina; [1]): B (≤ 80)
PUCCRT 3DC disease control rating, HV activity (Puccinia triticina; [2]): D
SEPTTR 1DP disease control rating, HV activity (Zymoseptoria tritici; [3]): B (≤ 80)
SEPTTR 3DC disease control rating, HV activity (Zymoseptoria tritici; [4]): D

COc1ccnc(C(=O)N[C@@H](C)C(=O)O[C@@H](C)[C@H](OCC2CC2)C(C)(C)C)c1O [Cmpd 1004]
PUCCRT 1DP disease control rating, HV activity at 100 ppm (Puccinia triticina; 100 ppm): A (> 80)
PUCCRT 3DC disease control rating, HV activity at 100 ppm (Puccinia triticina; 100 ppm): A (> 80)
SEPTTR 1DP disease control rating, HV activity at 100 ppm (Zymoseptoria tritici; 100 ppm): B (≤ 80)
SEPTTR 3DC disease control rating, HV activity at 100 ppm (Zymoseptoria tritici; 100 ppm): B (≤ 80)

COc1ccnc(C(=O)N[C@@H](C)C(=O)O[C@@H](C)[C@@H](CC(C)C)Oc2cccc(Cl)c2)c1O [Cmpd 1050]
HV activity at 100 ppm PUCCRT 1DP (disease control rating) (Puccinia triticina; HV application, 100 ppm, 1 Day Protectant, wheat brown rust): A (> 80)
HV activity at 100 ppm PUCCRT 3DC (disease control rating) (Puccinia triticina; HV application, 100 ppm, 3 Day Curative, wheat brown rust): A (> 80)
HV activity at 100 ppm SEPTTR 1DP (disease control rating) (Zymoseptoria tritici; HV application, 100 ppm, 1 Day Protectant, wheat leaf blotch): A (> 80)
HV activity at 100 ppm SEPTTR 3DC (disease control rating) (Zymoseptoria tritici; HV application, 100 ppm, 3 Day Curative, wheat leaf blotch): A (> 80)

COc1ccnc(C(=O)N[C@@H](C)C(=O)O[C@@H](C)[C@H](Oc2ccc(-c3ccccc3)cc2)C(C)C)c1OCOC(C)=O [Cmpd 612]
PUCCRT 1DP, LV activity at 125.1 g/H (% Control rating) (Puccinia triticina; [5]): A (> 80)
PUCCRT 3DC, LV activity at 125.1 g/H (% Control rating) (Puccinia triticina; [6]): B (≤ 80)
SEPTTR 1DP, LV activity at 125.1 g/H (% Control rating) (Zymoseptoria tritici; [5]): D
SEPTTR 3DC, LV activity at 125.1 g/H (% Control rating) (Zymoseptoria tritici; [6]): B (≤ 80)

COc1ccnc(C(=O)N[C@@H](C)C(=O)O[C@@H](C)[C@H](Oc2cccc(F)c2)C2CCCC2)c1O [Cmpd 839]
PUCCRT 1DP disease control rating, HV activity at 100 ppm (Puccinia triticina; 100 ppm): A (> 80)
PUCCRT 3DC disease control rating, HV activity at 100 ppm (Puccinia triticina; 100 ppm): A (> 80)
SEPTTR 1DP disease control rating, HV activity at 100 ppm (Zymoseptoria tritici; 100 ppm): B (≤ 80)
SEPTTR 3DC disease control rating, HV activity at 100 ppm (Zymoseptoria tritici; 100 ppm): B (≤ 80)

C=CC[C@@H](OCC(=C)C)[C@H](C)OC(=O)[C@H](C)NC(=O)c1nccc(OC)c1OCOC(C)=O [Cmpd 1082]
LV activity at 125.1 g/H PUCCRT 1DP (disease control rating) (Puccinia triticina; low volume application, 125.1 g/H, 1 Day Protectant, wheat brown rust): B (≤ 80)
LV activity at 125.1 g/H PUCCRT 3DC (disease control rating) (Puccinia triticina; low volume application, 125.1 g/H, 3 Day Curative, wheat brown rust): A (> 80)
LV activity at 125.1 g/H SEPTTR 1DP (disease control rating) (Zymoseptoria tritici; low volume application, 125.1 g/H, 1 Day Protectant, wheat leaf blotch): D
LV activity at 125.1 g/H SEPTTR 3DC (disease control rating) (Zymoseptoria tritici; low volume application, 125.1 g/H, 3 Day Curative, wheat leaf blotch): D

COc1ccnc(C(=O)N[C@@H](C)C(=O)O[C@@H](C)[C@H](Oc2cc(F)cc(Cl)c2)c2ccccc2)c1OCOC(C)=O [Cmpd 641]
PUCCRT 1DP, LV activity at 125.1 g/H (% Control rating) (Puccinia triticina; [5]): A (> 80)
PUCCRT 3DC, LV activity at 125.1 g/H (% Control rating) (Puccinia triticina; [6]): B (≤ 80)
SEPTTR 1DP, LV activity at 125.1 g/H (% Control rating) (Zymoseptoria tritici; [5]): A (> 80)
SEPTTR 3DC, LV activity at 125.1 g/H (% Control rating) (Zymoseptoria tritici; [6]): A (> 80)

CCC(CCC(C)C)C(OCC1CC1)C(C)OC(=O)C(C)NC(=O)c1nccc(OC)c1O (centres unmarked) [Cmpd 318]
PUCCRT 1DP disease control rating, HV activity (Puccinia triticina; [1]): D
PUCCRT 3DC disease control rating, HV activity (Puccinia triticina; [2]): B (≤ 80)
SEPTTR 1DP disease control rating, HV activity (Zymoseptoria tritici; [3]): D
SEPTTR 3DC disease control rating, HV activity (Zymoseptoria tritici; [4]): B (≤ 80)
